Experimental data: US20190185479A1, “BICYCLIC NITROGENATED HETEROCYCLIC COMPOUND” (MITSUBISHI TANABE PHARMA CORPORATION, priority 2016, published 2019)

Target: T1, Human PDE7B (hPDE7B) (Homo sapiens, UniProt Q9NP56)
T1 construct: made in house; host or cells: COS-7 cells
Test: Measurement of PDE7 inhibitory activity (Experimental Example 1; residual cAMP, LANCE Ultra cAMP TR-FRET)
Assay type: biochemical
Settings: for IC50: cAMP 3 nmol/L, room temperature 60 minutes; for inhibition at 1 µM: compound at 1 μmol/L
Experimental: Human PDE7B (hPDE7B) was isolated from COS-7 cells transfected with plasmids encoding hPDE7B according to the method described in a reference, Biochemical and Biophysical Research Communication, 271, p. 575-583 (2000). The resulting enzyme solution was used in the PDE assay.
PDE7 inhibitory assay was carried out by reacting the mixture of a compound, hPDE7B, and cAMP, and measuring the residual cAMP by a detection method using LANCE (registered trademark) Ultra cAMP Detection Kit (ParkinElmer). The compound was dissolved in DMSO, and diluted so that the concentration would become 50 times of the final concentration. The hPDE7B and cAMP were diluted with an assay buffer (50 mmol/L Tris-HCl, 1 mmol/L MgCl2, 0.1% BSA, 0.5 mmol/L DTT, pH7.5) so that the hPDE7B would have an appropriate enzyme activity and the concentration of cAMP would become 6 nmol/L. To a 96 well plate were added the compound (2 μL) (DMSO final concentration: 2%), hPDE7B (48 μL), and cAMP (50 μL) (concentration at the reaction: 3 nmol/L), and the resulting mixture was reacted at room temperature for 60 minutes. The reaction solution (20 μL) was subjected to a TR-FRET method according to the protocol specified by the kit to measure the concentration of the residual cAMP. In the assay, to a tracer solution specified by the kit was added 0.5 mmol/L of 3-isobutyl-1-methylxanthine (IBMX, nonselective PDE inhibitor) in order to stop the PDE enzyme reaction after the completion of reaction until the measurement.
The reaction without a compound was defined as “0% inhibition”, the reaction without hPDE7B was defined as “100% inhibition”, and the inhibition rate of the compound was calculated by the following equation.
Inhibition rate of compound (%)={(Residual cAMP concentration at the addition of compound−Residual cAMP concentration in 0% inhibition)/(Residual cAMP concentration in 100% inhibition−Residual cAMP concentration in 0% inhibition)}×100

T1 sequence (Q9NP56 whole entry): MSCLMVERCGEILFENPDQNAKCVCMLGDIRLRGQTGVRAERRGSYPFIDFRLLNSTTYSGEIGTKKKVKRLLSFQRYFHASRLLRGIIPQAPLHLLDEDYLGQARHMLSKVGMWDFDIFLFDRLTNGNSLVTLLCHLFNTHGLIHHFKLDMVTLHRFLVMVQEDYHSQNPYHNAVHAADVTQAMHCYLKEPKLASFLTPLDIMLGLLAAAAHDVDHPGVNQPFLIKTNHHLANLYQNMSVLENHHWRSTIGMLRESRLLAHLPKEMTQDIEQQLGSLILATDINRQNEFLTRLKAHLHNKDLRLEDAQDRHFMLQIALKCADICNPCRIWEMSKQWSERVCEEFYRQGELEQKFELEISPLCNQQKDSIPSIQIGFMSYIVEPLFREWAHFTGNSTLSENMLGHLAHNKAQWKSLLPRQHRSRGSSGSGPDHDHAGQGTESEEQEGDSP

IC50 [nM] | inhibition at 1 µM [%] | Compound
> 1000 | 28 | CC1CCC(F)(F)CC1c1nnc2c(N)nccn12 (single isomer, unassigned) [Example 176, 3-(cis-5,5-difluoro-2-methylcyclohexyl) [1,2,4]triazolo[4,3-a]pyrazin-8-amine]
> 1000 | 33 | CC1(C)CC(c2nnc3c(N)nccn23)CC(F)(F)C1 (single isomer, unassigned) [Example 178, 3-(3,3-difluoro-5,5-dimethylcyclohexyl) [1,2,4]triazolo[4,3-a]pyrazin-8-amine]
220 | – | CC1CCCCC1n1nnc2c(N)ncnc21 (single isomer, unassigned) [Example 190, 3-(cis-2-methylcyclohexyl)-3H-[1,2,3]triazolo[4,5-d]pyrimidin-7-amine]
430 | – | CC1CCCCC1n1nnc2c(N)ncnc21 (single isomer, unassigned) [Example 193, 3-(trans-2-methylcyclohexyl)-3H-[1,2,3]triazolo[4,5-d]pyrimidin-7-amine]
340 | – | CC1CCCC(n2nnc3c(N)ncnc32)C1 (single isomer, unassigned) [Example 197, 3-(cis-3-methylcyclohexyl)-3H-[1,2,3]triazolo[4,5-d]pyrimidin-7-amine]
70 | – | CC1CCCC(n2nnc3c(N)ncnc32)C1 (single isomer, unassigned) [Example 198, 3-(trans-3-methylcyclohexyl)-3H-[1,2,3]triazolo[4,5-d]pyrimidin-7-amine]
> 1000 | 20 | Nc1ncnc2c1nnn2C1CCCC(C(F)F)C1 (single isomer, unassigned) [Example 201]
> 1000 | 27 | Nc1ncnc2c1nnn2C1CCCC(C(F)(F)F)C1 (single isomer, unassigned) [Example 203, 3-[cis-3-(trifluoromethyl)cyclohexyl]-3H-[1,2,3]triazolo[4,5-d]pyrimidin-7-amine]
> 1000 | 44 | CC1(C)CCCC(c2nnc3c(N)nccn23)C1 (single isomer, unassigned) [Example 206, 3-(3,3-dimethylcyclohexyl) [1,2,4]triazolo[4,3-a]pyrazin-8-amine]
130 | – | Nc1nccn2c(C3CCCC4(CC4)C3)nnc12 (single isomer, unassigned) [Example 209, 3-(spiro[2,5]oct-5-yl) [1,2,4]triazolo[4,3-a]pyrazin-8-amine]
> 1000 | 20 | Nc1nccn2c(C3CCCC(C(F)(F)F)C3)nnc12 (single isomer, unassigned) [Example 211, 3-[cis-3-(trifluoromethyl)cyclohexyl][1,2,4]triazolo[4,3-a]pyrazin-8-amine]
530 | – | CC1CC(c2nnc3c(N)nccn23)CC(F)(F)C1 (single isomer, unassigned) [Example 215]
100 | – | CC1CC(c2nnc3c(N)nccn23)CC(F)(F)C1 (single isomer, unassigned) [Example 217, 3-(trans-3,3-difluoro-5-methylcyclohexyl[1,2,4]triazolo[4,3-a]pyrazin-8-amine]
110 | – | Nc1nccn2c(C3CCC4CC4C3)nnc12 (single isomer, unassigned) [Example 220, 3-(bicyclo[4.1.0]hept-3-yl) [1,2,4]triazolo[4,3-a]pyrazin-8-amine]
190 | – | CCC1CCCCN1c1nnc2c(N)nccn12 (single isomer, unassigned) [Example 223, 3-(2-ethylpiperidin-1-yl) [1,2,4]triazolo[4,3-a]pyrazin-8-amine]
170 | – | Nc1nccn2c(N3CCCC(C(F)(F)F)C3)nnc12 (single isomer, unassigned) [Example 224]
540 | – | Nc1nccn2c(N3CCCC(C(F)(F)F)C3)nnc12 (single isomer, unassigned) [Example 225]
190 | – | CC1CC(C)CN(c2nnc3c(N)nccn23)C1 (single isomer, unassigned) [Example 227, 3-[trans-3,5-dimethylpiperidin-1-yl][1,2,4]triazolo[4,3-a]pyrazin-8-amine]
540 | – | CC1CCN(c2nnc3c(N)nccn23)CC1C (single isomer, unassigned) [Example 228, 3-(3,4-dimethylpiperidin-1-yl) [1,2,4]triazolo[4,3-a]pyrazin-8-amine]
310 | – | CC1CCN(c2nnc3c(N)nccn23)CC1C (single isomer, unassigned) [Example 229, 3-(3,4-dimethylpiperidin-1-yl) [1,2,4]triazolo[4,3-a]pyrazin-8-amine]
100 | – | CC1CCC(C)N(c2nnc3c(N)nccn23)C1 (single isomer, unassigned) [Example 233, 3-(2,5-dimethylpiperidin-1-yl) [1,2,4]triazolo[4,3-a]pyrazin-8-amine]
16 | – | CC1CCC(C)N(c2nnc3c(N)ncc(C#N)n23)C1 (single isomer, unassigned) [Example 235, 8-amino-3-(2,5-dimethylpiperidin-1-yl) [1,2,4]triazolo[4,3-a]pyrazine-5-carbonitrile]
2.8 | – | CC1CCC(C)(C)CN1c1nnc2c(N)nccn12 (single isomer, unassigned) [Example 237, 3-(2,5,5-trimethylpiperidin-1-yl) [1,2,4]triazolo[4,3-a]pyrazin-8-amine]
110 | – | CC1CCCCC1c1nnc2c(N)ncnn12 (single isomer, unassigned) [Example 239, 3-(cis-2-methylcyclohexyl) [1,2,4]triazolo[3,4-f][1,2,4]triazin-8-amine]

IC50 [nM] | inhibition at 1 µM [%] | Compound
230 | – | CC1CCCC(c2nnc3c(N)ncnn23)C1 (single isomer, unassigned) [Example 241, 3-(cis-3-methylcyclohexyl) [1,2,4]triazolo[3,4-f][1,2,4]triazin-8-amine]
120 | – | CC1(C)CCCC(c2nnc3c(N)ncnn23)C1 (single isomer, unassigned) [Example 243, 3-(3,3-dimethylcyclohexyl) [1,2,4]triazolo[3,4-f][1,2,4]triazin-8-amine]
850 | – | Nc1ncnn2c(C3CCCC(C(F)(F)F)C3)nnc12 (single isomer, unassigned) [Example 245, 3-[cis-3-(trifluoromethyl)cyclohexyl][1,2,4]triazolo[3,4-f][1,2,4]triazin-8-amine]
629 | – | CC1CCC(F)(F)CC1c1nnc2c(N)ncnn12 (single isomer, unassigned) [Example 247, 3-(cis-5,5-difluoro-2-methylcyclohexyl) [1,2,4]triazolo[3,4-f][1,2,4]triazin-8-amine]
> 1000 | 35 | C=C(C)[C@H]1CC[C@H](C)C(n2nnc3c(N)ncnc32)C1 (stereo in doubt) [Example 107, 3-[(1R,2S,5S)-2-methyl-5-(prop-1-en-2-yl)cyclohexyl]-3H-[1,2,3]triazolo[4,5-d]pyrimidin-7-amine]
340 | – | Nc1nc(C(F)(F)F)nc2c1nnn2C1CCCCC1 [Example 6]
890 | – | C[C@]1(O)CC[C@@H](n2nnc3c(N)ncnc32)CC1 [Example 9]
100 | – | Nc1ncnc2c1nnn2C12CC3CC(CC(C3)C1)C2 [Example 10]
400 | – | CC(C)(C)OC(=O)N1CCCC(n2nnc3c(N)ncnc32)C1 (stereo not drawn) [Example 11]
620 | – | CC(C)(C)OC(=O)N1CCC[C@@H](n2nnc3c(N)ncnc32)C1 [Example 12, tert-butyl (3R)-3-(7-amino-3H-[1,2,3]triazolo[4,5-d]pyrimidin-3-yl)piperidine-1-carboxylate]
560 | – | Nc1ncnc2c1nnn2-c1c(F)cccc1F [Example 14]
570 | – | CC(c1ccccc1)n1nnc2c(N)ncnc21 (stereo not drawn) [Example 15]
350 | – | C[C@@H](c1ccc(F)cc1)n1nnc2c(N)ncnc21 [Example 16]
460 | – | Nc1nccn2c(C3CCC3)nnc12 [Example 18]
240 | – | C=C1CC(c2nnc3c(N)nccn23)C1 [Example 19, 3-(3-methylenecyclobutyl)-[1,2,4]triazolo[4,3-a]pyrazin-8-amine]
90 | – | C[C@H]1CCCCN1c1nnc2c(N)nccn12 [Example 21, 3-(2-methylpiperidin-1-yl) [1,2,4]triazolo[4,3-a]pyrazin-8-amine]
190 | – | CCC1CCCN(c2nnc3c(N)nccn23)C1 (stereo not drawn) [Example 25]
320 | – | Nc1nccn2c(N3CCCC(F)C3)nnc12 (stereo not drawn) [Example 27]
390 | – | Nc1nccn2c(N3CCCCCCC3)nnc12 [Example 30]
480 | – | Nc1nccn2c(N3C[C@H]4C[C@H]4C3)nnc12 [Example 31]
520 | – | Nc1ncnc2c1nnn2C1CCCc2ccccc21 (stereo not drawn) [Example 33]
460 | – | Nc1ncnc2c1nnn2C1CCc2ccccc2C1 (stereo not drawn) [Example 34]
200 | – | Nc1ncnc2c1nnn2C1CCC1 [Example 35]
